These are literature values, as cited in patent US6700032B1, “Wound care management” (Leatherite Pty Limited, priority 1996, dated 2004).

The conditions of this data set: recommended concentrations.

Take “2,4,4′-trichloro-2′-hydroxy diphenyl ether [Triclosan]”: the toxicological testing entry is on record as “safe at recommended concentrations”.
